Measurements from patent US11197911B2, “Peptidylic inhibitors targeting C9ORF72 hexanucleotide repeat-mediated neurodegeneration” (The Chinese University of Hong Kong, priority 2016, dated 2021).
“Also recorded” adds a separate entry of the source. No end group written: not given here.

Columns and labels:
[1] = test system: expanded CAG repeat-mediated nucleolar stress; settings: polyQ disease; inventors' previous work (ref. 20); cited from earlier work
[2] = test system: (GGGGCC)66-expressing SK-N-MC cells; assay: LDH cytotoxicity assay, (GGGGCC)66-induced cell death; assay type: cell-based; settings: for suppression of (GGGGCC)66-induced cell death compared with P3L (structure-activity relationship study): 10 μM, single alanine substitution mutants; for effect on (GGGGCC)66-induced cell death (LDH enzyme activity in medium): 0.1, 1, 10 and 20 μM peptide
Protocol: SK-N-MC cells were kindly provided by Prof. Dobrila D. Rudnicki (Johns Hopkins University, USA). […] Leonard Petrucelli (Mayo Clinic, USA).
For IC50 detection, various amount of TAT-P3L, 0.1, 0.5, 1, 10, 50, 100, 500, 1,000 and 10,000 nM were added to individual culture wells after transfection. Forty eight hours after treatment, LDH enzyme activity in the cell culture medium was measured as described before. Experimental groups were normalized to the untransfected control. After normalization, data were analyzed using the dose response-inhibition curve (nonlinear regression-variable slope) to determine the IC50 value (Prism6 software, GraphPad Software, Inc.).

UAS-(GGGGCC)3 flies [3] = assay: External eye assay, control flies; assay type: in vivo, Drosophila; settings: GMR-Gal4/UAS-(GGGGCC)3 flies; 100 μM feeding
Protocol: (§1) Flies were raised at 25° C. on cornmeal medium supplemented with dry yeast. For […], third instar larvae were feed with 100 μM of TAT-P3L or TAT-P3LS1 dissolved in 2% sucrose solution for 2 h and then continued to culture in standard fly food. Eye images of 1 day-old adult of UAS-(GGGGCC)3 or UAS-(GGGGCC)36 flies were captured using a SPOT Insight CCD camera (Diagnostic instruments Inc.) on an Olympus SZX-12 stereomicroscope.

UAS-(GGGGCC)3 flies [4] = assay: Lifespan assay, control flies; assay type: in vivo, Drosophila; settings: 50 μM in food
[5] = test system: GGGGCC RNA foci in (GGGGCC)66-expressing SK-N-MC cells; assay: RNA fluorescence in situ hybridization, GGGGCC RNA foci formation; assay type: cell-based; settings: 10 μM, 48 h
Protocol: In situ hybridization was carried out to evaluate the effect of TAT-P3L on GGGGCC RNA foci formation in […]-expressing SK-N-MC cells. In brief, 0.8×10^5 SK-N-MC cells were seeded and grown on glass coverslips in 24-well plate. Ten micromolar of TAT-P3L or TAT-P3LS1 were added immediately after transfection of 1 μg of pAg3-(GGGGCC)2/66 plasmid. After 48 h, cells were fixed with 4% paraformaldehyde for 10 min and permeabilized with 0.5% Triton-X 100 for 5 min at room temperature. Cells were then washed with phosphate buffered saline treated with diethylpyrocarbonate (DEP-CPBS) three times, and hybridized with 40 nM denatured TYE563-labeled LNA probe (5′-TYE563-CCCGGCCCCGGCCCC-3′; SEQ ID NO:13; Exiqon, Inc) in hybridization buffer (50% formamide, 10% dextran sulfate, 2× saline-sodium citrate buffer (SSC), 50 mM sodium phosphate buffer) 6 h at 65° C. After washing once with 0.1% Tween-20/2×SSC for 5 min at room temperature, cell were further washed with 0.1×SSC 3 times at 65° C. for 10 min. Nuclei were counterstained with Hoechst 33342 (1 μg/ml, Thermo Fisher Scientific) prior to mounting coverslips. Images were obtained on an OLYMPUS FV1000 IX81-TIRF confocal microscope.

UAS-(GGGGCC)36 flies [6] = assay: Lifespan assay; assay type: in vivo, Drosophila; settings: elavGS flies, RU486 200 μM plus peptide 50 μM in food
UAS-(GGGGCC)36 flies [7] = assay: Climbing ability assay; assay type: in vivo, Drosophila; settings: elavGS flies, RU486 200 μM plus peptide 50 μM in food, 10, 15, 20 and 25 dpe
Protocol: Fly climbing ability was analyzed by negative geotaxis.

nucleophosmin (B23) = assay: Immunostaining, nucleolar stress marker B23 localization; assay type: cell-based; settings: (GGGGCC)66-expressing SK-N-MC cells; 10 μM; 48 h
Protocol: (§2) SK-N-MC cells were seeded and grown on glass coverslips at a density of 0.8×10^5 in 24-well plate. Forty eight hours after treatment, cells were fixed with 4% paraformaldehyde followed by three times wash with 1×PBS. Cells were then permeabilized in 0.5% Triton X-100 for 10 min at room temperature followed by three washes with 1×PBS. After washing step, cells were blocked with 5% BSA in 1×PBS for 1 h at room temperature. The NCL (1:500, Abcam) or B23 (1:500, Abcam) antibody was then applied with 5% BSA (1:500) 2 h at room temperature. Once the primary antibody was removed, Cells were washed three times with 1×PBS and incubated with an anti-rabbit Cy3 or an anti-mouse Cy3 secondary antibody (1:400, Jackson Labs) 1 h at room temperature. After washing with 1×PBS, nuclei were counterstained with Hoechst 33342 (1 μg/ml, Thermo Fisher Scientific) prior to mounting coverslips. Images were obtained on an OLYMPUS FV1000 IX81-TIRF confocal microscope. A single focal plan was obtained through the centre of the nucleus. The method of quantification of NCL and B23 nuclear area fold change was described previously^7. In order to quantify both dispersed NCL and dense nucleolar NCL, a threshold setting in ImageJ ranging from 25-100 was used to measure the pixel area of NCL relative to the area of the nucleus outlined by the Hoechst staining. […]

UAS-(GGGGCC)36 flies [8] = assay: External eye assay; assay type: in vivo, Drosophila; settings: GMR-Gal4/UAS-(GGGGCC)36 flies; 100 μM feeding; 1 day-old adults
Protocol: as §1

NCL = assay: Immunostaining, nucleolar stress marker NCL localization; assay type: cell-based; settings: (GGGGCC)66-expressing SK-N-MC cells; 10 μM; 48 h
Protocol: as §2

UAS-(GGGGCC)3 flies [9] = settings: 50 μM in food
Protocol: For lifespan and climbing ability assay, flies of 2dpe were feed with food containing different drug combination including vehicle control (ethanol), Mifepristone (RU486, 200 μM), RU486 (200 μM) plus TAT-P3L (50 μM), and RU486 (200 μM) plus TAT-P3LS1 (50 μM). Mifepristone (RU486, 200 μM) was used to induce transgene expression. For climbing ability assay, 10-15 flies were allocated to each experimental vials (total of 90-100 flies per condition) and monitored every 5 days. Fly climbing ability was analyzed by negative geotaxis. Groups of ∞15 flies were anesthetized and placed in a vertical plastic column. After 1 h recovery, flies were banged to the bottom, and then scored for climbing ability as the percentage of flies remaining at the bottom (<2 cm) at 25 s. Three trials were performed at 3 min intervals in each experiment.

P3: peptide DGKSKGIAYIEFK (SEQ ID NO:2), derived from RRM2 of NCL, inventors' previous work (synthetic peptide construct P3)
inhibition of expanded CAG repeat-mediated nucleolar stress and neurodegeneration [1]: specifically inhibited expanded CAG repeat-mediated nucleolar stress

YGRKKRRQRRRAEIRLVSKDGKSKGIAYIEFK [TAT-P3L]
IC50 ([2]; 48 h, concentration reducing LDH enzyme activity by 50% vs untreated control, read-out: IC50 in suppressing (GGGGCC)66-induced cell death): 104 ± 24.6 nM
eye defect in control flies (UAS-(GGGGCC)3 flies [3]): did not cause any observable eye defect
lifespan of control flies (UAS-(GGGGCC)3 flies [4]): did not alter the lifespan
RNA foci-like structure formation in control group [5]: no RNA foci-like structure formed

TAT-P3LMT19: TAT-P3L mutant carrying a single alanine substitution; mutant part SEQ ID NO:32 (YGRKKRRQRRRAEIRLVSKDGKSKGIAYIEFA; synthetic peptide construct TAT; synthetic peptide mutant PL3MT19)
suppression of (GGGGCC)66-induced cell death compared with P3L (structure-activity relationship study) ([2]; 48 h): same suppression effect as the P3L peptide

TAT-RRM1-P1: TAT fusion peptide YGRKKRRQRRRTGTNRKFGYVD (SEQ ID NO: 7), derived from RRM1 of NCL (synthetic peptide construct TAT-RRM1-P1)
effect on (GGGGCC)66-induced cell death (LDH enzyme activity in medium) ([2]; 48 h): did not demonstrate any modifying effect; also recorded: didn't alter

YGRKKRRQRRRTFIKVPQNQNGKSKGYAF [TAT-RRM3-P1]
cytotoxicity elicited by the peptide by itself (LDH) ([2]; when the dose was raised): elicited cytotoxicity

YGRKKRRQRRRGGEDIKSRVEAASILYFIKKK [TAT-P3LS1, reference compound]
RNA foci-like structure formation in control group [5]: no RNA foci-like structure formed

AEIRLVSKDGKSKGIAYIEFK [P3L]
lifespan (in words) (UAS-(GGGGCC)36 flies [6]): extended lifespan
climbing defect (UAS-(GGGGCC)36 flies [7]): rescued locomotor deficit
subcellular localization of B23 (nucleophosmin (B23)): restored the subcellular localization
eye degeneration (scar formation in eye) (UAS-(GGGGCC)36 flies [8]): significantly suppressed neurodegeneration
subcellular localization of NCL (NCL): restored the subcellular localization
climbing ability of control flies (UAS-(GGGGCC)3 flies [9]): not found to be affecting the climbing ability

TAT-P3LMT1: TAT-P3L mutant carrying a single alanine substitution; mutant part SEQ ID NO:14 (YGRKKRRQRRRAAIRLVSKDGKSKGIAYIEFK; synthetic peptide construct TAT; synthetic peptide mutant PL3MT1)
suppression of (GGGGCC)66-induced cell death compared with P3L (structure-activity relationship study) ([2]; 48 h): same suppression effect as the P3L peptide

TAT-RRM4-P1: TAT fusion peptide YGRKKRRQRRRRARIVTDRETGSSKGFGFVD (SEQ ID NO: 10), derived from RRM4 of NCL (synthetic peptide construct TAT-RRM4-P1)
effect on (GGGGCC)66-induced cell death (LDH enzyme activity in medium) ([2]; 48 h): did not demonstrate any modifying effect; also recorded: did not alter
